# Assay results as given in ChEMBL document CHEMBL1201862, “PubChem BioAssay data set” (2004).
# Calls of active or inactive are those of the source.
# Columns and labels:
# [1] = target: Dual specificity tyrosine-phosphorylation-regulated kinase 1A (Rattus norvegicus, UniProt Q63470); assay type: biochemical, Homo sapiens
# [2] = target: Procathepsin L (Homo sapiens, UniProt P07711)
# [3] = target: Aspartyl aminopeptidase (Plasmodium falciparum 3D7, UniProt Q8I2J3)
# [4] = target: T1, Rac GTPase-activating protein 1 (Homo sapiens, UniProt Q9H0H5); experiment: MgcRacGAP GTPase-activating activity inhibitors, confirmation, biochemical, ADP Hunter fluorescence, primary and confirmatory (AID 624330); assay type: functional
# T1 sequence (Q9H0H5 whole entry): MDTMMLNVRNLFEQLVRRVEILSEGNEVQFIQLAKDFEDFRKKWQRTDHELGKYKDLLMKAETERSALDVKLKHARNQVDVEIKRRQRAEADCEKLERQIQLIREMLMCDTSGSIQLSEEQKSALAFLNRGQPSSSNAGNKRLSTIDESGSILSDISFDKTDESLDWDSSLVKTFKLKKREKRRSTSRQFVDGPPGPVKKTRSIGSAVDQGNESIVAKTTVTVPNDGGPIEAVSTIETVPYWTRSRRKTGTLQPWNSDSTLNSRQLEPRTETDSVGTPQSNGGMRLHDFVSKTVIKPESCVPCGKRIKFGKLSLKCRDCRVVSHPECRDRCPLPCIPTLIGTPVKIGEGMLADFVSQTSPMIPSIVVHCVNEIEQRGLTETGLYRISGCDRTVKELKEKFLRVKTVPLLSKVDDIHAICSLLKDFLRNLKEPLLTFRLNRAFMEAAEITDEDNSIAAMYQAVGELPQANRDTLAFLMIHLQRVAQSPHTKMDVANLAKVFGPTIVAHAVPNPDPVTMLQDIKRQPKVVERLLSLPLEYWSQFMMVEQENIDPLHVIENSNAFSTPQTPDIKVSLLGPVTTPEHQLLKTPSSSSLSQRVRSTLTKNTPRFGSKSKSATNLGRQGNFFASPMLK
# [5] = target: T2, Eukaryotic translation initiation factor 2-alpha kinase 3 (Homo sapiens, UniProt Q9NZJ5); experiment: Counterscreen assay for PERK inhibitors: Dose response cell-based high throughput screening assay to measure inhibition of PERK at 6 hours. [Related pubchem assays: 1522, 1416 ]; assay type: functional
# [6] = target: T2, Eukaryotic translation initiation factor 2-alpha kinase 3; experiment: Dose response cell-based high-throughput screening assay to measure PERK inhibition. [Related pubchem assays: 1416 ]; assay type: functional
# [7] = target: Lysosomal acid glucosylceramidase (Homo sapiens, UniProt P04062); experiment: Dose response cell-based high throughput screening assay to identify enhancers of beta-glucosidase activity. [Related pubchem assays: 784 ]; assay type: functional
# [8] = target: G2/mitotic-specific cyclin-B1 (Homo sapiens, UniProt P14635); experiment: Counterscreen assay for inhibitors of Wee1 degradation: dose response cell-based assay to identify inhibitors of cyclin B degradation. [Related pubchem assays: 1410, 1321 ]; assay type: functional
# [9] = target: Wee1-like protein kinase (Homo sapiens, UniProt P30291); experiment: Dose Response Cell-based Assay for Inhibitors of Wee1 Degradation. [Related pubchem assays: 1410, 1321 ]; assay type: functional
# [10] = target: Mothers against decapentaplegic homolog 3 (Homo sapiens, UniProt P84022); experiment: Smad3 binding inhibitors, lysate ELISA, dose response, cell lysate, secondary confirmation, chemiluminescent ELISA, HEK293 lysate (AID 1058); assay type: functional
# [11] = target: Cytochrome P450 2D6 (Homo sapiens, UniProt P10635); experiment: qHTS Assay for Inhibitors and Substrates of Cytochrome P450 2D6. [Related pubchem assays: 410 ]; assay type: ADME; settings: read-out: Potency
# [12] = target: Heat shock protein HSP 90-alpha (Homo sapiens, UniProt P07900); assay type: functional, organism-based
# [13] = target: Large T antigen (Simian virus 40, UniProt P03070); assay type: functional, Betapolyomavirus macacae;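 also: Confirmatory-stage PubChem screen for compounds that inhibit SV40 T antigen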
# [14] = target: NS3 (Hepatitis C virus, UniProt A3EZJ3); experiment: PubChem AID 2173; parameters: species or system Hepacivirus hominis
# [15] = target: C-C chemokine receptor type 6 (Homo sapiens, UniProt P51684); experiment: CCR6 receptor antagonists, dose response, cell-based, luminescent beta-arrestin readout (AID 504728); assay type: functional
# [16] = target: T3, High affinity choline transporter 1 (Homo sapiens, UniProt Q9GZV3); experiment: CHT inhibitors, dose response, cell-based, 5-point CRC, membrane potential dye (AID 504840); assay type: functional
# T3 sequence (Q9GZV3 whole entry): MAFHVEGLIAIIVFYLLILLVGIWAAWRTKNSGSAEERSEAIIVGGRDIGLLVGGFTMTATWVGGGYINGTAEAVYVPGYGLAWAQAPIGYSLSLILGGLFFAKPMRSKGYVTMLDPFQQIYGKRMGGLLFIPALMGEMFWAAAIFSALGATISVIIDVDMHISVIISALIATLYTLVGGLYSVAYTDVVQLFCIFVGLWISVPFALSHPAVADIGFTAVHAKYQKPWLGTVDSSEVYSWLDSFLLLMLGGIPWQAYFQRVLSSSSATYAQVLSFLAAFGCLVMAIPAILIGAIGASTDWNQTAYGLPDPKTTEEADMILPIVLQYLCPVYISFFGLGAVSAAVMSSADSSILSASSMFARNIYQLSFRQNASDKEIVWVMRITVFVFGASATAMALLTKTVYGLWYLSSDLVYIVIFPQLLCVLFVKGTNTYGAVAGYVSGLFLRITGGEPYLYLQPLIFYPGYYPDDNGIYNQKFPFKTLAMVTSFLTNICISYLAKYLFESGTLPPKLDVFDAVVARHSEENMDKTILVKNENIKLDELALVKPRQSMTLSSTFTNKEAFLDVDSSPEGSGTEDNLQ
# [17] = target: Beta-galactosidase (Escherichia coli, UniProt Q8VNN2); experiment: beta-galactosidase enzyme inhibitors and activators, dose response, artefact control for CCR6 antagonist project, biochemical, E. coli enzyme, set 3 (AID 504712); assay type: functional
# [18] = cells; assay type: functional, cell-based
# [19] = luciferase reporter signal reduction – luminescence, H4-C neuroglioblastoma cells, dose response (AID 2458); assay type: functional, cell-based;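 also: H4 neuroglioblastoma cells stably carrying a luciferase reporter gene fusion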
# [20] = inhibitors of firefly luciferase expression or activity, dose response, H4 neuroglioma cells, luminescence (AID 1990); assay type: functional, cell-based
# [21] = Luminescence Cell-Based Dose Response HTS to Identify Inhibitors of 5'UTR Stem-Loop Driven Prion Protein mRNA Translation in H4 Neuroglioblastoma Cells. [Related pubchem assays: 1827 (Project Summary), 1813 (Primary HTS)]; assay type: functional
# [22] = inhibitors of SNCA 5'UTR-driven reporter translation, confirmation, H4 neuroglioma cells, luminescence (AID 1988); assay type: functional, cell-based
# [23] = inhibitors of SNCA 5'UTR-driven translation, confirmation, luminescence, H4 neuroglioblastoma cells, dose confirmation (AID 2454); assay type: functional, cell-based;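 also: H4 neuroglioblastoma cells carrying an alpha-synuclein 5'UTR luciferase reporter; potency for inhibition of the luciferase signal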
# T2 sequence (Q9NZJ5 whole entry): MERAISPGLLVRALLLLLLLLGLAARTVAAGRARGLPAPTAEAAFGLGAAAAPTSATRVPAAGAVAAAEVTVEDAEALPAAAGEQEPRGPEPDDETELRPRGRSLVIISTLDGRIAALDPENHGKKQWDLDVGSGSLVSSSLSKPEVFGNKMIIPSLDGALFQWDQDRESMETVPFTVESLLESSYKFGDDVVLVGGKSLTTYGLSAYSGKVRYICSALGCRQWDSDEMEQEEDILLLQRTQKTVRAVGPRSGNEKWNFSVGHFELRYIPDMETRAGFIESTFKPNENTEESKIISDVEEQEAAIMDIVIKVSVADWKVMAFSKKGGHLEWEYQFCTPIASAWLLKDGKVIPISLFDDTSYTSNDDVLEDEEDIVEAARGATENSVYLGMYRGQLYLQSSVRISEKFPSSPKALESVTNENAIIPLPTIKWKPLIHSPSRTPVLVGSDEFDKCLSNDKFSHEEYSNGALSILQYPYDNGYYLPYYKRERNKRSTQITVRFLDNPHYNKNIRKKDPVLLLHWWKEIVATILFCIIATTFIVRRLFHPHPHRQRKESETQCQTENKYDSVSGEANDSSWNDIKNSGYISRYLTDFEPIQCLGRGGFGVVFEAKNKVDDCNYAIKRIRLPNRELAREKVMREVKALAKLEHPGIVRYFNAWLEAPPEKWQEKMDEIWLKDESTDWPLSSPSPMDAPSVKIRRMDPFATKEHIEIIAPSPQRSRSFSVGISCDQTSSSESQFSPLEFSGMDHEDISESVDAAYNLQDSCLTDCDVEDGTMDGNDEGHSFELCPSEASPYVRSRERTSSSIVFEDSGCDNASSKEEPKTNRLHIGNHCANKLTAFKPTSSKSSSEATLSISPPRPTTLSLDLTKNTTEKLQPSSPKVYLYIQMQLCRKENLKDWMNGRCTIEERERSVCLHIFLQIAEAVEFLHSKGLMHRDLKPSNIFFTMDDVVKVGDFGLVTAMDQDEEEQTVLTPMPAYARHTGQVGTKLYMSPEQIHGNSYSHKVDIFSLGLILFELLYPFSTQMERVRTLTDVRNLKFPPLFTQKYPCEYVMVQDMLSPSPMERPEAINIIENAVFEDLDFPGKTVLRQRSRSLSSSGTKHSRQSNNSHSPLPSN
# Sequence of Wee1-like protein kinase (P30291 whole entry): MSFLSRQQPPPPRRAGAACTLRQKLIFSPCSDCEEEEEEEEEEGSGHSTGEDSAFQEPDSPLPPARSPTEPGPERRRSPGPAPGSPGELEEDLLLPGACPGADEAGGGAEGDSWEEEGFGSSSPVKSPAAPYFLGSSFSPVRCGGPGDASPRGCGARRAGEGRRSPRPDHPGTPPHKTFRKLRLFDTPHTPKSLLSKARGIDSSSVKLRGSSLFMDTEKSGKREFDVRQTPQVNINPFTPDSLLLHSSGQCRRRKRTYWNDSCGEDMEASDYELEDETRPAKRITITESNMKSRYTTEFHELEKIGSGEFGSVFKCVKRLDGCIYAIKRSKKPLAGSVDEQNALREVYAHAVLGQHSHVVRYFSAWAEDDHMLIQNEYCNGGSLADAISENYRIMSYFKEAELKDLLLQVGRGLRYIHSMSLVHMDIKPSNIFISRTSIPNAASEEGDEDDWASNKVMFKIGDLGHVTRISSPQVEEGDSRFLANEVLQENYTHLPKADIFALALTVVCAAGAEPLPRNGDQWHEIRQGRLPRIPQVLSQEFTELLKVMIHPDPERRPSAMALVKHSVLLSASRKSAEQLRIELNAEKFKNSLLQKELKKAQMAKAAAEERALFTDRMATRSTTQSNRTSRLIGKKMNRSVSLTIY
# Sequence of Large T antigen (P03070 whole entry): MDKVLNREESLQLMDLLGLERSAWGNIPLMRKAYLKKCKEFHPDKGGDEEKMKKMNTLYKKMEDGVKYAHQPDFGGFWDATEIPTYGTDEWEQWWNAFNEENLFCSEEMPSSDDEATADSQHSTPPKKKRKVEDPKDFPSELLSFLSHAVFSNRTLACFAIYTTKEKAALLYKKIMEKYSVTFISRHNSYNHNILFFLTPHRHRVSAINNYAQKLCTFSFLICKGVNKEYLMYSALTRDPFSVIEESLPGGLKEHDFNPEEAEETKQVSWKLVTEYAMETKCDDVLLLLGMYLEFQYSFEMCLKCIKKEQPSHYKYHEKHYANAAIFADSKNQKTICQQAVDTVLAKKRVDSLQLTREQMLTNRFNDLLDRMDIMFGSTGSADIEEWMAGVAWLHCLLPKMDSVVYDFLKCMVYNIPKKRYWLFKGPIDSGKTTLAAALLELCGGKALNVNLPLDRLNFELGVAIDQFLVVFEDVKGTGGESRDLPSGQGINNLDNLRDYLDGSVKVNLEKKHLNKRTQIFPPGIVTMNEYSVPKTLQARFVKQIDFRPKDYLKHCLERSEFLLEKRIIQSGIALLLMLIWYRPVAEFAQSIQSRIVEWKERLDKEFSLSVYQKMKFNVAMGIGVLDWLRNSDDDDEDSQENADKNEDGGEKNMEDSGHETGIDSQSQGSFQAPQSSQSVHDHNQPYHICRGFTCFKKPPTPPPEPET
# Sequence of NS3 (A3EZJ3 whole entry): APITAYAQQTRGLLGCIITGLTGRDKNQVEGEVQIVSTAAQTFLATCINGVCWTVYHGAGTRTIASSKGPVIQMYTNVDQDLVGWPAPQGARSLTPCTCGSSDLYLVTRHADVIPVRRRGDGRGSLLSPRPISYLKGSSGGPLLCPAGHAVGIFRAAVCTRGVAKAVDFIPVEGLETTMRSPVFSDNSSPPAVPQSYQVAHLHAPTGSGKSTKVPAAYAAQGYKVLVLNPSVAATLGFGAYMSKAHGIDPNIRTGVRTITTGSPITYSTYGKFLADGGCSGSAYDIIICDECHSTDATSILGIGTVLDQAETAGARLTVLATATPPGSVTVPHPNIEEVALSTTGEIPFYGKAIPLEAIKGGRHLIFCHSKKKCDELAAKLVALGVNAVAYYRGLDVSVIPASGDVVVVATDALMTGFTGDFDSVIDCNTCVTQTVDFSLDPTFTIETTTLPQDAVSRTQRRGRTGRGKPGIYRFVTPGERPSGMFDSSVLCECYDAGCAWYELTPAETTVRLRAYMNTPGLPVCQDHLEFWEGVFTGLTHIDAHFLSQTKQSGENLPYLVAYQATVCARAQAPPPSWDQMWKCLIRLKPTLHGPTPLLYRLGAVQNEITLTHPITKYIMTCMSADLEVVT
# Sequence of G2/mitotic-specific cyclin-B1 (P14635 whole entry): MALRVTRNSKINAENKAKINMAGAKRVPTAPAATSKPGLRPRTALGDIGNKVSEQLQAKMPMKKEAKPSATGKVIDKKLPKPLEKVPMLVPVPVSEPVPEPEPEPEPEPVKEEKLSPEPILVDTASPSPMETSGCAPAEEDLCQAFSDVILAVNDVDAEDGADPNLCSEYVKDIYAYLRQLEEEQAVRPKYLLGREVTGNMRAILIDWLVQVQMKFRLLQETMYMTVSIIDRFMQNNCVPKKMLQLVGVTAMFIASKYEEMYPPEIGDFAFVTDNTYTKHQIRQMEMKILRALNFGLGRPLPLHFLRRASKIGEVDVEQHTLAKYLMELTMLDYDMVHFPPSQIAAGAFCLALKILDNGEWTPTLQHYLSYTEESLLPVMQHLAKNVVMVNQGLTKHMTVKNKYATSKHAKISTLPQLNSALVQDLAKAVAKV
# Sequence of Mothers against decapentaplegic homolog 3 (P84022 whole entry): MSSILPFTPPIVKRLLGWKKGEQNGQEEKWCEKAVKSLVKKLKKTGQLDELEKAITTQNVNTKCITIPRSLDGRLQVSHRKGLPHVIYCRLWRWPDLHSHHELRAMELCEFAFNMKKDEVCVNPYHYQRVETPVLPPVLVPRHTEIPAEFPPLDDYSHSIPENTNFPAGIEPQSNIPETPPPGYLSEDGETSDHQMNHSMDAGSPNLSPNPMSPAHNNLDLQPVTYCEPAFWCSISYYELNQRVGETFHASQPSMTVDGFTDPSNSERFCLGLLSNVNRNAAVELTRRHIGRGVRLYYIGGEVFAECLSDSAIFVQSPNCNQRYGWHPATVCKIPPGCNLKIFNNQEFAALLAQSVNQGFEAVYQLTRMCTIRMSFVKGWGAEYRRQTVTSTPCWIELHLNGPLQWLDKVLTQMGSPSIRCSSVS
# Sequence of Lysosomal acid glucosylceramidase (P04062 whole entry): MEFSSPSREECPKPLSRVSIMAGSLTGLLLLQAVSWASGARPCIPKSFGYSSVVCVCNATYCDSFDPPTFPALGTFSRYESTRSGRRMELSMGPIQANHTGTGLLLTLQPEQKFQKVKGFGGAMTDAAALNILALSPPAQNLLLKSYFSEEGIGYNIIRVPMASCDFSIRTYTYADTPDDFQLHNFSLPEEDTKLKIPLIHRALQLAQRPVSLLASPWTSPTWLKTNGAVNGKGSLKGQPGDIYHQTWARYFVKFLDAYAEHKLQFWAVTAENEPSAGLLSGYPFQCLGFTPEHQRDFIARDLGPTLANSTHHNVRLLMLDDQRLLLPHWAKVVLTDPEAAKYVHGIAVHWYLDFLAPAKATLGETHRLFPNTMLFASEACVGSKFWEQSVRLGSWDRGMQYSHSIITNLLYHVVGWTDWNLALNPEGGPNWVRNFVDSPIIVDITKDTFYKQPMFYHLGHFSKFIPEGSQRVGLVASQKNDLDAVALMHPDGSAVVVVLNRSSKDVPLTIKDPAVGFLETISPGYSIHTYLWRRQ
# Sequence of C-C chemokine receptor type 6 (P51684 whole entry): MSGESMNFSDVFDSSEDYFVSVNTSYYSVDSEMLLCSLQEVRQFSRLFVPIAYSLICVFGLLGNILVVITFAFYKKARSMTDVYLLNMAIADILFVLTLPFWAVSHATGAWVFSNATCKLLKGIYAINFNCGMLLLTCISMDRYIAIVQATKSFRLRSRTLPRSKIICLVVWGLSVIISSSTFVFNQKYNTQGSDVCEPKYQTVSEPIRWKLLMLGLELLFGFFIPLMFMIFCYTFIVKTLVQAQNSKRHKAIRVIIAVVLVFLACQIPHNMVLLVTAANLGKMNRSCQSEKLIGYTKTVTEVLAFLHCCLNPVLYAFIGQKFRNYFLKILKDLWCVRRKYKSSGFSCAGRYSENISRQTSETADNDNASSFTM
smiles,measurement,setting,value
Oc1ccc(-c2csc(-c3cccnc3)n2)cc1O,AC50,[1],7.37 µM (active)
same,IC50,[2],> 59.6 µM (not active)
same,IC50,[3],1.81 µM (active)
same,IC50,[4],9.47 µM (active)
Cc1c2cnn(-c3ccccc3)c(=O)c2c(C)n1CCCC(=O)NCCN1CCN(C)CC1,EC50,[5],> 55.7 µM (not active)
same,EC50,[6],> 55.7 µM (not active)
COC(=O)c1cn(NC(=O)c2ccncc2)c(=O)c2ccccc12,EC50,[7],> 50 µM (not active)
CCN(CC)S(=O)(=O)c1ccc(C(=O)NCCc2ccccn2)cc1,EC50,[8],> 49.7 µM (not active)
same,EC50,[9],> 49.7 µM (not active)
COc1cc(C(c2cc3c(cc2O)OCO3)N2CCOCC2)ccc1O (stereo not drawn),IC50,[10],10.1 µM (not active)
COc1cccc(-c2oc3ccccc3c(=O)c2O)c1,AC50,[11],31.6 µM (inconclusive)
O=[N+]([O-])c1cc(Cc2ccccc2)cc(/C=N/c2ccc(N3CCOCC3)cc2)c1O,AC50,[12],4.32 µM (active)
same,IC50,[13],2.64 µM (active)
same,IC50,[14],7.65 µM (active)
same,IC50,[15],> 66.6 µM (inactive)
same,IC50,[16],9.12 µM (active)
same,IC50,[17],> 66.6 µM (inactive)
CC(=O)O[C@@H]1/C=C/[C@](C)(O)C[C@@H](C)C/C=C/[C@H]2[C@H](O)C(C)=C(C)[C@H]3[C@H](Cc4ccccc4)NC(=O)[C@@]123,EC50,[18],0.895 µM (active)
same,EC50,[19],0.577 µM (active)
same,EC50,[20],0.208 µM (active)
same,EC50,[21],28.2 µM (active)
same,EC50,[22],< 0.1 µM (active)
same,EC50,[23],0.397 µM (active)
